Measurements reported in ChEMBL document CHEMBL4270583, “Synthesis and biological evaluation of dihydroquinoline carboxamide derivatives as anti-tubercular agents” (Eur J Med Chem, 2018).
Converted amounts (≈) assume the structure as drawn.

Experiments:
[1] = system: Mycobacterium tuberculosis; assay: Antitubercular activity against Mycobacterium tuberculosis H37Rv after 1 week by microplate alamar blue assay; type: functional; conditions: 168 h
[2] = Cytotoxicity against mouse RAW264.7 cells assessed as growth inhibition at 25 ug/ml after 48 hrs by MTT assay relative to control; type: cell-based; conditions: read-out: GI
[3] = Cytotoxicity against mouse RAW264.7 cells assessed as growth inhibition after 48 hrs by MTT assay; type: cell-based

O=C(NCCN1CCCCC1)c1c(-c2ccccc2)c2cc(Cl)ccc2[nH]c1=O
MIC [1]: 25 µg/mL (≈ 61 µM)

O=C(Nc1ccc(F)cc1)c1c(-c2ccccc2)c2ccccc2[nH]c1=O
MIC [1]: 25 µg/mL (≈ 69.8 µM)

CS(=O)(=O)c1ccc(NC(=O)c2c(-c3ccccc3)c3ccccc3n(Cc3cccc(Cl)c3)c2=O)cc1
MIC [1]: 12.5 µg/mL (≈ 23 µM)

Cc1ccc(NC(=O)c2c(-c3ccccc3)c3cc(Cl)ccc3n(Cc3cc(F)cc(F)c3)c2=O)c(C)c1
MIC [1]: 12.5 µg/mL (≈ 23.6 µM)

COC(=O)C(Cc1c[nH]c2ccccc12)NC(=O)c1c(-c2ccccc2)c2cc(Cl)ccc2[nH]c1=O (stereo not given)
inhibition at 48 h, 25 ug/ml [2]: 21.5% | GI50 at 48 h [3]: 104 µg/mL (≈ 209 µM) | MIC [1]: 6.25 µg/mL (≈ 12.5 µM)

O=C(Nc1ccccc1F)c1c(-c2ccccc2)c2cc(Cl)ccc2n(Cc2ccc(F)cc2)c1=O
MIC [1]: > 25 µg/mL

Cc1cccc(Cn2c(=O)c(C(=O)Nc3ccc(Br)cc3)c(-c3ccccc3)c3cc(Cl)ccc32)c1
MIC [1]: > 25 µg/mL

O=C(Nc1ccc(N2CCOCC2)cc1)c1c(-c2ccccc2)c2cc(Cl)ccc2[nH]c1=O
inhibition at 48 h, 25 ug/ml [2]: 18.6% | GI50 at 48 h [3]: 96.4 µg/mL (≈ 210 µM) | MIC [1]: 6.25 µg/mL (≈ 13.6 µM)

Cc1cccc(Cn2c(=O)c(C(=O)Nc3ccc(C(F)(F)F)cc3)c(-c3ccccc3)c3cc(Cl)ccc32)c1
MIC [1]: > 25 µg/mL

O=C(NCCN1CCOCC1)c1c(-c2ccccc2)c2cc(Cl)ccc2[nH]c1=O
MIC [1]: 25 µg/mL (≈ 60.7 µM)

O=C(Nc1ccc(F)cc1)c1c(-c2ccccc2)c2ccccc2n(Cc2ccccc2)c1=O
MIC [1]: > 25 µg/mL

O=C(Nc1ccc(C(F)(F)F)cc1)c1c(-c2ccccc2)c2ccccc2n(Cc2ccccc2)c1=O
MIC [1]: 25 µg/mL (≈ 50.2 µM)

O=C(NCCc1ccc(O)cc1)c1c(-c2ccccc2)c2cc(Cl)ccc2[nH]c1=O
MIC [1]: 25 µg/mL (≈ 59.7 µM)

CSc1ccc(NC(=O)c2c(-c3ccccc3)c3cc(Cl)ccc3n(Cc3cccc(C)c3)c2=O)cc1
MIC [1]: 12.5 µg/mL (≈ 23.8 µM)

CSc1ccc(NC(=O)c2c(-c3ccccc3)c3ccccc3n(Cc3cccc(Cl)c3)c2=O)cc1
MIC [1]: > 25 µg/mL

O=C(NC12CC3CC(CC(C3)C1)C2)c1c(-c2ccccc2)c2ccccc2[nH]c1=O
inhibition at 48 h, 25 ug/ml [2]: 16.2% | GI50 at 48 h [3]: 87.6 µg/mL (≈ 220 µM) | MIC [1]: 3.12 µg/mL (≈ 7.84 µM)

O=C(Nc1ccc(CO)cc1)c1c(-c2ccccc2)c2cc(Cl)ccc2[nH]c1=O
MIC [1]: > 25 µg/mL

Cc1cc(C)c(NC(=O)c2c(-c3ccccc3)c3cc(Cl)ccc3n(Cc3cccc(F)c3)c2=O)c(C)c1
inhibition at 48 h, 25 ug/ml [2]: 22.4% | GI50 at 48 h [3]: 93.5 µg/mL (≈ 178 µM) | MIC [1]: 0.78 µg/mL (≈ 1.49 µM)

Cc1cccc(Cn2c(=O)c(C(=O)Nc3ccc(OC(F)(F)F)cc3)c(-c3ccccc3)c3cc(Cl)ccc32)c1
MIC [1]: > 25 µg/mL

O=C(Nc1ccc2c(c1)OCCO2)c1c(-c2ccccc2)c2ccccc2[nH]c1=O
MIC [1]: 25 µg/mL (≈ 62.7 µM)

O=C(NCCc1c[nH]c2ccccc12)c1c(-c2ccccc2)c2ccccc2[nH]c1=O
MIC [1]: 12.5 µg/mL (≈ 30.7 µM)

Cc1cccc(Cn2c(=O)c(C(=O)Nc3ccc(F)cc3)c(-c3ccccc3)c3cc(Cl)ccc32)c1
MIC [1]: > 25 µg/mL

O=C(Nc1ccc(OC(F)(F)F)cc1)c1c(-c2ccccc2)c2ccccc2n(Cc2ccccc2)c1=O
MIC [1]: > 25 µg/mL

O=C(Nc1cccc(F)c1)c1c(-c2ccccc2)c2cc(Cl)ccc2n(Cc2ccc(F)cc2)c1=O
MIC [1]: > 25 µg/mL

O=C(Nc1ccc(Cl)cc1)c1c(-c2ccccc2)c2cc(Cl)ccc2n(Cc2cccc(F)c2)c1=O
inhibition at 48 h, 25 ug/ml [2]: 24.7% | GI50 at 48 h [3]: 86.8 µg/mL (≈ 168 µM) | MIC [1]: 0.39 µg/mL (≈ 0.754 µM)

O=C(NCCc1ccccc1)c1c(-c2ccccc2)c2cc(Cl)ccc2[nH]c1=O
MIC [1]: 25 µg/mL (≈ 62.1 µM)

COC(=O)C(Cc1ccc(O)cc1)NC(=O)c1c(-c2ccccc2)c2cc(Cl)ccc2[nH]c1=O (stereo not given)
MIC [1]: 12.5 µg/mL (≈ 26.2 µM)

O=C(Nc1ccc(Br)cc1)c1c(-c2ccccc2)c2ccccc2n(Cc2ccccc2)c1=O
inhibition at 48 h, 25 ug/ml [2]: 14.6% | GI50 at 48 h [3]: 113 µg/mL (≈ 222 µM) | MIC [1]: 6.25 µg/mL (≈ 12.3 µM)

O=C(NCCCn1ccnc1)c1c(-c2ccccc2)c2cc(Cl)ccc2[nH]c1=O
MIC [1]: 25 µg/mL (≈ 61.4 µM)

Cc1cccc(Cn2c(=O)c(C(=O)Nc3ccc(Cl)cc3)c(-c3ccccc3)c3cc(Cl)ccc32)c1
MIC [1]: 25 µg/mL (≈ 48.7 µM)

CC[C@@H](CO)NCCN[C@@H](CC)CO [ETHAMBUTOL]
MIC [1]: 1.56 µg/mL (≈ 7.64 µM)

NNC(=O)c1ccncc1 [ISONIAZID]
MIC [1]: 0.1 µg/mL (≈ 0.729 µM)

CO[C@H]1/C=C/O[C@@]2(C)Oc3c(C)c(O)c4c(O)c(c(/C=N/N5CCN(C)CC5)c(O)c4c3C2=O)NC(=O)/C(C)=C\C=C\[C@H](C)[C@H](O)[C@@H](C)[C@@H](O)[C@@H](C)[C@H](OC(C)=O)[C@@H]1C [RIFAMPIN]
MIC [1]: 0.2 µg/mL (≈ 0.243 µM)
